{"source": "paper PMC9276671", "about": "“A first-in-human Phase I dose-escalation trial of the novel therapeutic peptide, ALM201, demonstrates a favourable safety profile in unselected patients with ovarian cancer and other advanced solid tumours” (British Journal of Cancer, 2022)", "assay": "Plasma pharmacokinetics of ALM201 in Phase I patients (validated LC-MS/MS, Phoenix WinNonlin)", "conditions": "for Tmax: median, plasma LC-MS/MS; for Half-life: SC, day 1 cycle 1", "note": "No end group written: not given here."}
{"sequence": "IRQQPRDPPTETLELEVSPDPAS [ALM201]", "values": [{"measurement": "level at 2 h", "setting": "human, plasma, sc, 300 mg, Plasma concentration, geometric mean (CV%), 300 mg SC, day 1 cycle 1, 2 h after dosing, n = 3, LC-MS/MS", "value": 2310, "unit": "ng/mL"}, {"measurement": "level at 3 h", "setting": "human, plasma, sc, 300 mg, Plasma concentration, geometric mean (CV%), 300 mg SC, day 1 cycle 1, 3 h after dosing, n = 3, LC-MS/MS", "value": 2120, "unit": "ng/mL"}, {"measurement": "level at 4 h", "setting": "human, plasma, sc, 300 mg, Plasma concentration, geometric mean (CV%), 300 mg SC, day 1 cycle 1, 4 h after dosing, n = 3, LC-MS/MS", "value": 1600, "unit": "ng/mL"}, {"measurement": "level at 5 h", "setting": "human, plasma, sc, 300 mg, Plasma concentration, geometric mean (CV%), 300 mg SC, day 1 cycle 1, 5 h after dosing, n = 3, LC-MS/MS", "value": 1280, "unit": "ng/mL"}, {"measurement": "level at 6 h", "setting": "human, plasma, sc, 300 mg, Plasma concentration, geometric mean (CV%), 300 mg SC, day 1 cycle 1, 6 h after dosing, n = 3, LC-MS/MS", "value": 901, "unit": "ng/mL"}, {"measurement": "level at 7 h", "setting": "human, plasma, sc, 300 mg, Plasma concentration, geometric mean (CV%), 300 mg SC, day 1 cycle 1, 7 h after dosing, n = 3, LC-MS/MS", "value": 703, "unit": "ng/mL"}, {"measurement": "level at 8 h", "setting": "human, plasma, sc, 300 mg, Plasma concentration, geometric mean (CV%), 300 mg SC, day 1 cycle 1, 8 h after dosing, n = 3, LC-MS/MS", "value": 420, "unit": "ng/mL"}, {"measurement": "level at 0.5 h", "setting": "human, plasma, sc, 300 mg, Plasma concentration, geometric mean (CV%), 300 mg SC, day 3 cycle 1, 0.5 h after dosing, n = 3, LC-MS/MS", "value": 1970, "unit": "ng/mL"}, {"measurement": "level at 1 h", "setting": "human, plasma, sc, 300 mg, Plasma concentration, geometric mean (CV%), 300 mg SC, day 3 cycle 1, 1 h after dosing, n = 3, LC-MS/MS", "value": 2590, "unit": "ng/mL"}, {"measurement": "level at 1.5 h", "setting": "human, plasma, sc, 300 mg, Plasma concentration, geometric mean (CV%), 300 mg SC, day 3 cycle 1, 1.5 h after dosing, n = 2 values (CV NC), LC-MS/MS", "value": 1950, "unit": "ng/mL"}, {"measurement": "level at 2 h", "setting": "human, plasma, sc, 300 mg, Plasma concentration, geometric mean (CV%), 300 mg SC, day 3 cycle 1, 2 h after dosing, n = 2 values (CV NC), LC-MS/MS", "value": 2450, "unit": "ng/mL"}, {"measurement": "level at 4.5 h", "setting": "human, plasma, sc, 300 mg, Plasma concentration, geometric mean (CV%), 300 mg SC, day 3 cycle 1, 4.5 h after dosing, n = 3, LC-MS/MS", "value": 1740, "unit": "ng/mL"}, {"measurement": "level at 7 h", "setting": "human, plasma, sc, 300 mg, Plasma concentration, geometric mean (CV%), 300 mg SC, day 3 cycle 1, 7 h after dosing, n = 3, LC-MS/MS", "value": 852, "unit": "ng/mL"}, {"measurement": "level at 0.5 h", "setting": "human, plasma, sc, 300 mg, Plasma concentration, geometric mean (CV%), 300 mg SC, day 18 cycle 1, 0.5 h after dosing, n = 3, LC-MS/MS", "value": 2290, "unit": "ng/mL"}, {"measurement": "level at 1 h", "setting": "human, plasma, sc, 300 mg, Plasma concentration, geometric mean (CV%), 300 mg SC, day 18 cycle 1, 1 h after dosing, n = 3, LC-MS/MS", "value": 2410, "unit": "ng/mL"}, {"measurement": "level at 1.5 h", "setting": "human, plasma, sc, 300 mg, Plasma concentration, geometric mean (CV%), 300 mg SC, day 18 cycle 1, 1.5 h after dosing, n = 3, LC-MS/MS", "value": 2600, "unit": "ng/mL"}, {"measurement": "level at 2 h", "setting": "human, plasma, sc, 300 mg, Plasma concentration, geometric mean (CV%), 300 mg SC, day 18 cycle 1, 2 h after dosing, n = 3, LC-MS/MS", "value": 2520, "unit": "ng/mL"}, {"measurement": "level at 4.5 h", "setting": "human, plasma, sc, 300 mg, Plasma concentration, geometric mean (CV%), 300 mg SC, day 18 cycle 1, 4.5 h after dosing, n = 3, LC-MS/MS", "value": 1370, "unit": "ng/mL"}, {"measurement": "level at 7 h", "setting": "human, plasma, sc, 300 mg, Plasma concentration, geometric mean (CV%), 300 mg SC, day 18 cycle 1, 7 h after dosing, n = 3, LC-MS/MS", "value": 767, "unit": "ng/mL"}, {"measurement": "level at 0.5 h", "setting": "human, plasma, sc, 300 mg, Plasma concentration, geometric mean (CV%), 300 mg SC, day 18 cycle 2, 0.5 h after dosing, n = 3, LC-MS/MS", "value": 1990, "unit": "ng/mL"}, {"measurement": "level at 1 h", "setting": "human, plasma, sc, 300 mg, Plasma concentration, geometric mean (CV%), 300 mg SC, day 18 cycle 2, 1 h after dosing, n = 3, LC-MS/MS", "value": 2280, "unit": "ng/mL"}, {"measurement": "level at 1.5 h", "setting": "human, plasma, sc, 300 mg, Plasma concentration, geometric mean (CV%), 300 mg SC, day 18 cycle 2, 1.5 h after dosing, n = 3, LC-MS/MS", "value": 2380, "unit": "ng/mL"}, {"measurement": "level at 2 h", "setting": "human, plasma, sc, 300 mg, Plasma concentration, geometric mean (CV%), 300 mg SC, day 18 cycle 2, 2 h after dosing, n = 3, LC-MS/MS", "value": 2540, "unit": "ng/mL"}, {"measurement": "level at 4.5 h", "setting": "human, plasma, sc, 300 mg, Plasma concentration, geometric mean (CV%), 300 mg SC, day 18 cycle 2, samples collected at 4.5 hours, n = 3, LC-MS/MS", "value": 720, "unit": "ng/mL"}, {"measurement": "level at 7 h", "setting": "human, plasma, sc, 300 mg, Plasma concentration, geometric mean (CV%), 300 mg SC, day 18 cycle 2, samples collected at 7.0 hours, n = 3, LC-MS/MS", "value": 485, "unit": "ng/mL"}, {"measurement": "level at 0.5 h", "setting": "human, plasma, sc, 300 mg, Plasma concentration, geometric mean (CV%), 300 mg SC, day 18 cycle 4, 0.5 h after dosing, n = 1, LC-MS/MS", "value": 1670, "unit": "ng/mL"}, {"measurement": "level at 1 h", "setting": "human, plasma, sc, 300 mg, Plasma concentration, geometric mean (CV%), 300 mg SC, day 18 cycle 4, 1 h after dosing, n = 1, LC-MS/MS", "value": 2140, "unit": "ng/mL"}, {"measurement": "level at 1.5 h", "setting": "human, plasma, sc, 300 mg, Plasma concentration, geometric mean (CV%), 300 mg SC, day 18 cycle 4, 1.5 h after dosing, n = 1, LC-MS/MS", "value": 1990, "unit": "ng/mL"}, {"measurement": "level at 2 h", "setting": "human, plasma, sc, 300 mg, Plasma concentration, geometric mean (CV%), 300 mg SC, day 18 cycle 4, 2 h after dosing, n = 1, LC-MS/MS", "value": 1990, "unit": "ng/mL"}, {"measurement": "level at 4.5 h", "setting": "human, plasma, sc, 300 mg, Plasma concentration, geometric mean (CV%), 300 mg SC, day 18 cycle 4, sample collected at 4.5 hours, n = 1, LC-MS/MS", "value": 854, "unit": "ng/mL"}, {"measurement": "level at 7 h", "setting": "human, plasma, sc, 300 mg, Plasma concentration, geometric mean (CV%), 300 mg SC, day 18 cycle 4, sample collected at 7.0 hours, n = 1, LC-MS/MS", "value": 387, "unit": "ng/mL"}, {"measurement": "level at 0.5 h", "setting": "human, plasma, sc, 300 mg, Plasma concentration, geometric mean (CV%), 300 mg SC, day 18 cycle 6, 0.5 h after dosing, n = 1, LC-MS/MS", "value": 3150, "unit": "ng/mL"}, {"measurement": "level at 1 h", "setting": "human, plasma, sc, 300 mg, Plasma concentration, geometric mean (CV%), 300 mg SC, day 18 cycle 6, 1 h after dosing, n = 1, LC-MS/MS", "value": 4430, "unit": "ng/mL"}, {"measurement": "level at 1.5 h", "setting": "human, plasma, sc, 300 mg, Plasma concentration, geometric mean (CV%), 300 mg SC, day 18 cycle 6, 1.5 h after dosing, n = 1, LC-MS/MS", "value": 5240, "unit": "ng/mL"}, {"measurement": "level at 2 h", "setting": "human, plasma, sc, 300 mg, Plasma concentration, geometric mean (CV%), 300 mg SC, day 18 cycle 6, 2 h after dosing, n = 1, LC-MS/MS", "value": 6830, "unit": "ng/mL"}, {"measurement": "level at 4.5 h", "setting": "human, plasma, sc, 300 mg, Plasma concentration, geometric mean (CV%), 300 mg SC, day 18 cycle 6, sample collected at 4.5 hours, n = 1, LC-MS/MS", "value": 3600, "unit": "ng/mL"}, {"measurement": "level at 7 h", "setting": "human, plasma, sc, 300 mg, Plasma concentration, geometric mean (CV%), 300 mg SC, day 18 cycle 6, sample collected at 7.0 hours, n = 1, LC-MS/MS", "value": 693, "unit": "ng/mL"}, {"measurement": "Tmax", "setting": "human, plasma, sc, 300 mg, 300 mg SC, day 1 cycle 1, n = 3", "value": 2, "unit": "h"}, {"measurement": "Tmax", "setting": "human, plasma, sc, 300 mg, 300 mg SC, day 3 cycle 1, n = 3", "value": 1.02, "unit": "h"}, {"measurement": "Tmax", "setting": "human, plasma, sc, 300 mg, 300 mg SC, day 18 cycle 1, n = 3", "value": 1.5, "unit": "h"}, {"measurement": "Tmax", "setting": "human, plasma, sc, 300 mg, 300 mg SC, day 18 cycle 4, n = 1", "value": 1.12, "unit": "h"}, {"measurement": "Tmax", "setting": "human, plasma, sc, 300 mg, 300 mg SC, day 18 cycle 6, n = 1", "value": 2.02, "unit": "h"}, {"measurement": "Half-life", "setting": "patient 02.002, 80 mg cohort", "value": 1.80, "unit": "h"}, {"measurement": "Half-life", "setting": "patient 02.003, 160 mg cohort", "value": 1.50, "unit": "h"}, {"measurement": "Half-life", "setting": "patient 03.005, 160 mg cohort", "value": 0.90, "unit": "h"}]}
